Assay results published in ChEMBL document CHEMBL1201862, “PubChem BioAssay data set” (2004).
Values belong to the molecule of their own block, whether it stands above or below them. Active and inactive are the calls of the source.

Key:
[1] = target: SWI/SNF-related matrix-associated actin-dependent regulator of chromatin subfamily A member 2 (Homo sapiens, UniProt P51531); experiment: Luminescence-based cell-based high throughput dose response assay to identify activators of the function of SWI/SNF related, matrix associated, actin dependent regulator of chromatin, subfamily a, member 2 (SMARCA2, BRM).; assay type: functional
Sequence of SWI/SNF-related matrix-associated actin-dependent regulator of chromatin subfamily A member 2 (P51531 whole entry): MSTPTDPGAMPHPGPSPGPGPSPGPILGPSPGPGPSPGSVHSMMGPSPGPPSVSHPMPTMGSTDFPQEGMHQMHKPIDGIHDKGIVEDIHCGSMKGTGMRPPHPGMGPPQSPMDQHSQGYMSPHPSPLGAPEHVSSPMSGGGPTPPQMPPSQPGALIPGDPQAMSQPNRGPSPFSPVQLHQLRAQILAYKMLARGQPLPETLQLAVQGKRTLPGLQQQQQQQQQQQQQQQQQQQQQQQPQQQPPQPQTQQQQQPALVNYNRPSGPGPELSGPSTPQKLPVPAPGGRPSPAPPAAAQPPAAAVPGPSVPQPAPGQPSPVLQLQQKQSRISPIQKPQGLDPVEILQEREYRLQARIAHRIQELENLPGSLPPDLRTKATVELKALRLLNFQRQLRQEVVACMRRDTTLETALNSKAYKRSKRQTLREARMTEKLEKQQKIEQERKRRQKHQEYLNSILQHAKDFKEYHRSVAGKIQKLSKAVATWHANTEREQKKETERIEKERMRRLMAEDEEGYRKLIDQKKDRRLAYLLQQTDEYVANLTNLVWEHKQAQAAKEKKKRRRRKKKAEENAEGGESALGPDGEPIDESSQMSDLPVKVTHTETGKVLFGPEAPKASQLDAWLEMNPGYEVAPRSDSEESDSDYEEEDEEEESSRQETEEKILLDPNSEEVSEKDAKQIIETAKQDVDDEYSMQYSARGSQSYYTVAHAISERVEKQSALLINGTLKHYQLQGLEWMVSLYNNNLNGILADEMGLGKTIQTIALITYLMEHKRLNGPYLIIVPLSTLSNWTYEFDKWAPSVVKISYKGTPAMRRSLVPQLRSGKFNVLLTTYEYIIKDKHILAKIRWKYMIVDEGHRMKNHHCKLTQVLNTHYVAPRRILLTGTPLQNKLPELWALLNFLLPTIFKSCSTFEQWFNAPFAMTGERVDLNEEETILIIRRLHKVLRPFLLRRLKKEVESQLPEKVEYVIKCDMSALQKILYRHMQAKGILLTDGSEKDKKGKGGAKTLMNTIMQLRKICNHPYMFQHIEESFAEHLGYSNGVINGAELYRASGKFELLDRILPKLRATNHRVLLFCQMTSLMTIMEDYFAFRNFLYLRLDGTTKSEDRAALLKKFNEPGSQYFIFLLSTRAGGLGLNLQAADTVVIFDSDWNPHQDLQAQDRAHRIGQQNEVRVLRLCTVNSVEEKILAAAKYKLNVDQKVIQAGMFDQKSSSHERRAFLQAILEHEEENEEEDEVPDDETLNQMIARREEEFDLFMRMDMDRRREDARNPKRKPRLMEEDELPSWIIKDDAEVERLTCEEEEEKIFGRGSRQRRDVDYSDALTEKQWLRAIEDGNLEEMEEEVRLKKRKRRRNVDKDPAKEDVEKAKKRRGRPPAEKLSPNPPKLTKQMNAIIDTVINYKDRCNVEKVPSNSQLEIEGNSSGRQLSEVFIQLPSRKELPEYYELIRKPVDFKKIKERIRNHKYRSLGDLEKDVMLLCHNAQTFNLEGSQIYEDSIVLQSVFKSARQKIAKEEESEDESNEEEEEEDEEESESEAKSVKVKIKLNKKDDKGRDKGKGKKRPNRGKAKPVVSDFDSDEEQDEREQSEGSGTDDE

[2] = target: FAD-linked sulfhydryl oxidase ALR (Homo sapiens, UniProt P55789); experiment: ALR-catalysed DTT oxidation blockers – biochemical, H2O2 detection, luminescence, cherry-pick, dose response (AID 493248)
Sequence of FAD-linked sulfhydryl oxidase ALR (P55789 whole entry): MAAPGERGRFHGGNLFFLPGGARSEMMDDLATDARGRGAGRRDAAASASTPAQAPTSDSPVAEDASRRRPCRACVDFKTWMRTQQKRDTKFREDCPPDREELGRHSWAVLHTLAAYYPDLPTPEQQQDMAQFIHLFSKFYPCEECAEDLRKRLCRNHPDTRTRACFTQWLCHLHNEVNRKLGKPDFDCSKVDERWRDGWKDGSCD

[3] = Counterscreen for activators of the function of SWI/SNF related, matrix associated, actin dependent regulator of chromatin, subfamily a, member 2 (SMARCA2, BRM): Luminescence-based cell-based high throughput dose response assay to identify non-selective compounds using the VP16 reporter assay.; assay type: functional
Troponin, cardiac muscle = Troponin, cardiac muscle (Homo sapiens, UniProt P19429+P45379+P63316); experiment: Fluorescence-based biochemical high throughput dose response assay for activators of the calcium sensitivity of cardiac Regulated Thin Filaments (RTF). [Related pubchem assays (depositor defined):AID493008, AID493018, AID504382, AID504383]; assay type: protein-complex assay
Protein S100-A4 = Protein S100-A4 (Homo sapiens, UniProt P26447); experiment: human S100A4 peptide interaction inhibition curves – biochemical, fluorescence polarization, cherry-picked hits, dose response (AID 687001); assay type: functional
Sequence of Protein S100-A4 (P26447 whole entry): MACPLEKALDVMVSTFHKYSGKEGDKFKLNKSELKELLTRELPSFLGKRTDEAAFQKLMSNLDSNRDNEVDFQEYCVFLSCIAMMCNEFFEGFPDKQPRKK

[4] = target: T1, Sentrin-specific protease 8 (Homo sapiens, UniProt Q96LD8); assay type: functional
T1 sequence (Q96LD8 whole entry): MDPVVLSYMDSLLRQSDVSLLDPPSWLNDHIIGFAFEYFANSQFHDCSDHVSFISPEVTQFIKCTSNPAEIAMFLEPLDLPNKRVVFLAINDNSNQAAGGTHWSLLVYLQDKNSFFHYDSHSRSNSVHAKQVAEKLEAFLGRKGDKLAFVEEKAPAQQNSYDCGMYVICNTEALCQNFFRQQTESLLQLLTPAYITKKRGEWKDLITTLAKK

[5] = target: T1, Sentrin-specific protease 8; assay type: functional; remark: listed apart in the source
Vero = experiment: viability loss in Vero cells – cell-based, plate reader, cherry-pick samples, cytotoxicity control, dose response (AID 687020); assay type: functional; conditions: Chlorocebus sabaeus
[6] = activation of miR-122 Renilla sensor silencing – cell-based, Huh7 psiCHECK-miR122, Renilla luciferase, cherry-picked, dose response (AID 651956); assay type: functional;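 further: huh7 hepatoma cells stably carrying a psiCHECK-2 miR-122 sensor plasmid; renilla luciferase signal reporting endogenous miR-122 activity after 48 h compound exposure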
[7] = TNFa-induced NF-kB reporter signal decrease – HEK293 LMP1 reporter cells, dry powder, set 2, selectivity assay for EBV LMP1 NF-kB inhibitor project, dose response (AID 624369); assay type: functional
[8] = cytotoxicity in HEK293 background cells – cell-based, dry powder, set 2, counter-screen for EBV LMP1 inhibitor project, dose response (AID 624374); assay type: functional
[9] = target: Potassium channel subfamily K member 9 (Homo sapiens, UniProt Q9NPC2); experiment: KCNK9 flux blockade, concentration-response – cell-based, FluxOR thallium flux, selectivity assay for TASK1 inhibitor project, SAR follow-up (AID 652211); assay type: functional;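 further: potency is for inhibitors of the channel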
Sequence of Potassium channel subfamily K member 9 (Q9NPC2 whole entry): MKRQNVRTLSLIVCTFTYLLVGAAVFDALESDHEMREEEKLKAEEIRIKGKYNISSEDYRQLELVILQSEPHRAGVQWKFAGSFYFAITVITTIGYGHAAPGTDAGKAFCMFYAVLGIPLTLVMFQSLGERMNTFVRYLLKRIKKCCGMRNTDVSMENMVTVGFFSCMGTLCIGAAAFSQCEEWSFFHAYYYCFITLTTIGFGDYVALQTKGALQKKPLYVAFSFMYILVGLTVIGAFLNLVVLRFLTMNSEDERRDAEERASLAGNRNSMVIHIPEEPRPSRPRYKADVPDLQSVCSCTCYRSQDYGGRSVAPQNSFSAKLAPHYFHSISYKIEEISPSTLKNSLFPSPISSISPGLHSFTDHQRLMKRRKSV

[10] = target: Potassium channel subfamily K member 3 (Homo sapiens, UniProt O14649); experiment: inhibition of human KCNK3 channel flux – CHO cells, FluxOR thallium flux, SAR follow-up (AID 652212); assay type: functional
Sequence of Potassium channel subfamily K member 3 (O14649 whole entry): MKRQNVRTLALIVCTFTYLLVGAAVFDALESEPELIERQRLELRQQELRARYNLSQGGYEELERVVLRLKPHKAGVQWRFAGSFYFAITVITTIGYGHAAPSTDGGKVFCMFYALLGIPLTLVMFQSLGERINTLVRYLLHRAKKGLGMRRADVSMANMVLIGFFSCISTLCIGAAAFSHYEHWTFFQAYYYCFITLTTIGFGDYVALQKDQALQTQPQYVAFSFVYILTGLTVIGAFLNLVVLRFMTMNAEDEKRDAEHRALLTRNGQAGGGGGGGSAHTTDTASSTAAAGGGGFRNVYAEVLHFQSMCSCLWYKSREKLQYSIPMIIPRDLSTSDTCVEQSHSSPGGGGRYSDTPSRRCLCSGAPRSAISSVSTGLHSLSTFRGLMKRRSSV

[11] = T. cruzi growth inhibition in host cells, dose response, cell-based, plate reader, dry powder, set 2 (AID 652275); assay type: functional
[12] = anti-trypanosomal activity in BESM host cells – imaging, CA-I/72 strain, bovine embryo skeletal muscle, dry powder, dose response (AID 651885); assay type: functional, cell-based

SMILES: COc1ccc(-n2nnnc2S(=O)(=O)Cc2ccc(C(=O)O)cc2)cc1
EC50 [1]: > 91.2 µM (inactive)
AC50 [2]: 0.038 µM (active)
EC50 [3]: > 91.2 µM (inactive)

EC50 (Troponin, cardiac muscle): 6.28 µM (active)
AC50 (Protein S100-A4): 2.04 µM (active)
SMILES: Cc1ccc(N2C3=C(C(=O)CC(C)(C)C3)C(c3cn(C)nc3C)C3=C2CC(C)(C)CC3=O)cc1

SMILES: CC(NC(=O)COC(=O)c1ccc([N+](=O)[O-])o1)c1ccccc1 (stereo not given)
IC50 [4]: 7.54 µM (active)
IC50 [5]: 11.8 µM (active)

SMILES: COc1ccc(CC(=O)NCC2CCCN(Cc3ccc(OC(F)(F)F)cc3)C2)cc1 (stereo not given)
AC50 (Vero): 17.1 µM (active)

SMILES: C[C@H]1CN([C@@H](C)CO)C(=O)c2cc(C#Cc3ccccc3F)cnc2O[C@@H]1CN(C)C(=O)C1CCCCC1
AC50 [6]: 0.565 µM (active)
AbsAC35 [7]: 66.69 µM

SMILES: Cc1noc(C)c1S(=O)(=O)Nc1ccc2c(c1)C(=O)N([C@@H](C)CO)C[C@H](C)[C@H](CN(C)Cc1ccc(C(F)(F)F)cc1)OCCCC[C@H](C)O2
AbsAC35 [8]: 149.08 µM

IC50 [9]: 0.23 µM (active)
IC50 [10]: 0.007 µM (active)
SMILES: Cc1cccc(C(=O)Nc2cccc(NC(=O)c3cccs3)c2)c1

SMILES: C[C@@H]1CN([C@@H](C)CO)C(=O)c2cccc(NC(=O)c3cnccn3)c2O[C@H]1CN(C)Cc1ccc(Oc2ccccc2)cc1
AC50 [11]: 1.96 µM (active)
IC50 [12]: > 20 µM (inactive)
